Source: patent US9289471B2, “Product and process for liquefaction of mucus or sputum” (National Jewish Health, priority 2002, dated 2016)

Assay: Compaction assay: percent liquid fraction of CF sputum
Set-up: species or system human
Settings: for percent liquid fraction: 20 min (FIG. 3A)
Method: CF sputum stored at −80° C. was thawed at room temperature and aliquoted into 1.5 ml Eppendorf centrifuge tubes at volumes of 275 μl using a positive displacement pipette (Rainin, Emeryville, Calif.). Sputum samples were subjected to either diluent (H2O), Trx+TR+NADPH, GSH+glutathione reductase+NADPH, dithiothreitol (DTT) or N-acetylcysteine treatment by the addition of 25 μl of H2O containing the appropriate molar concentration of each agent. After brief vortexing (˜1 second), sample tubes were loaded onto a microtube rotisserie (Barnstead, Dubuque, Iowa) and incubated at 37° C. for 20 minutes. Samples were then processed for compaction assay according to methodology originated by Daugherty et al. (Daugherty et al., Biomaterials 16:553-558, 1995). To perform the assay, the contents of each sample were loaded into 100 μl glass micro-capillary tubes (Fisher Scientific) that had been previously welded to 200 μl pipette tips in order to achieve a tight fit. Three modified capillary tubes were used to draw up >90% of each sputum sample. Capillary tubes were then removed from their pipette tip, sealed with clay, and centrifuged for 10 minutes in a hematocrit centrifuge (IEC, Needham Heights, Mass.), followed by measurement of the length in millimeters of the gel (solid) and aqueous (liquid) phases in each tube. The percent liquid fraction of each capillary tube was calculated by dividing aqueous phase length by total length (gel+aqueous)×100. The three measurements of the liquid fraction (%) derived from each sample were then averaged to generate a single value for each treatment condition.
Due to abnormal ion transport caused by defects in the CFTR gene, airway secretions in CF patients are often desiccated. As a consequence, purulent CF sputum is comprised largely of a rigid and nonflowing biopolymer matrix, often referred to as gel phase, and lesser amounts of soluble, liquid phase. To assess the effect of Trx on the ratios of these two phases in sputum, compaction assay measurements were performed. […] After 20 minute incubation, the liquid fraction of each sample was determined by compaction assay.
To examine the effect of NADPH, additional samples from different donors were treated with 30 μM Trx, 0.1 μM TR and either 0, 0.2, 0.6, 1.0 or 2 mM NADPH for 20 minutes.
To assess the reproducibility of compaction assay measurements, sputum samples from three different CF donors were separated into aliquots and frozen. Specifically, freshly isolated CF sputum from three different donors (A, B, C) was separated into 275 μl aliquots and frozen. […] Results obtained from three independent experiments performed on each donor sample were used to evaluate assay reproducibility. On three consecutive days, aliquots were thawed, and treated with water, Trx and its reducing system, dithiothreitol (DTT), or no treatment.
The effectiveness of Trx in liquefying sputum was compared with other monothiol and dithiol reducing agents. Sputum samples were aliquoted and treated with Trx or GSH for 20 minutes and percent liquid determined by compaction assay. Initial compaction assay experiments compared the potencies of the Trx and GSH reducing systems in liquefaction of sputum in the presence of equimolar concentrations of NADPH. […] The analysis of Trx and NAC efficacy also was determined after 20 minute incubation, but on a different set of sputum samples.

For “Trx: Lyophilized recombinant E. coli Trx from Promega; protein disulfide reductase, used with its reducing system (TR + NADPH)”, the percent liquid fraction (10 μM Trx + 0.1 μM TR + 2 mM NADPH) was 34.8±6.6%, the percent liquid fraction (30 μM Trx + 0.1 μM TR + 2 mM NADPH) was 54.6±10.4% and the “percentage of sputum present in the liquid phase” value (30 μM Trx + 0.1 μM TR + 2 mM NADPH, 20 min, different donors (FIG. 1B)) was 70.55±18.13%. For the same substance, the “percentage of sputum present in the liquid phase” value (30 μM Trx + 0.1 μM TR without NADPH, 20 min (FIG. 1B)) was 2.9%±1.3, the percent liquid fraction (60 μM Trx + 0.1 μM TR + 2 mM NADPH) was 67.0±8.0% and the “3 day range of percent of sputum in the liquid state” value (donor B, 30 μM Trx with reducing system) was 46-51%. The “range of percent liquid values” (donor C, 30 μM Trx with reducing system) was 62-81%.
